Activity calls are given as the source filed them. The rule behind the calls is not given here.
How the values were obtained:
[1] = biological target: T1, Androgen receptor (Homo sapiens) (UniProt P10275); experiment: Displacement of dihydrotestosterone from human recombinant AR ligand binding domain at 15 uM by fluorescence polarization method
T1 sequence (whole entry): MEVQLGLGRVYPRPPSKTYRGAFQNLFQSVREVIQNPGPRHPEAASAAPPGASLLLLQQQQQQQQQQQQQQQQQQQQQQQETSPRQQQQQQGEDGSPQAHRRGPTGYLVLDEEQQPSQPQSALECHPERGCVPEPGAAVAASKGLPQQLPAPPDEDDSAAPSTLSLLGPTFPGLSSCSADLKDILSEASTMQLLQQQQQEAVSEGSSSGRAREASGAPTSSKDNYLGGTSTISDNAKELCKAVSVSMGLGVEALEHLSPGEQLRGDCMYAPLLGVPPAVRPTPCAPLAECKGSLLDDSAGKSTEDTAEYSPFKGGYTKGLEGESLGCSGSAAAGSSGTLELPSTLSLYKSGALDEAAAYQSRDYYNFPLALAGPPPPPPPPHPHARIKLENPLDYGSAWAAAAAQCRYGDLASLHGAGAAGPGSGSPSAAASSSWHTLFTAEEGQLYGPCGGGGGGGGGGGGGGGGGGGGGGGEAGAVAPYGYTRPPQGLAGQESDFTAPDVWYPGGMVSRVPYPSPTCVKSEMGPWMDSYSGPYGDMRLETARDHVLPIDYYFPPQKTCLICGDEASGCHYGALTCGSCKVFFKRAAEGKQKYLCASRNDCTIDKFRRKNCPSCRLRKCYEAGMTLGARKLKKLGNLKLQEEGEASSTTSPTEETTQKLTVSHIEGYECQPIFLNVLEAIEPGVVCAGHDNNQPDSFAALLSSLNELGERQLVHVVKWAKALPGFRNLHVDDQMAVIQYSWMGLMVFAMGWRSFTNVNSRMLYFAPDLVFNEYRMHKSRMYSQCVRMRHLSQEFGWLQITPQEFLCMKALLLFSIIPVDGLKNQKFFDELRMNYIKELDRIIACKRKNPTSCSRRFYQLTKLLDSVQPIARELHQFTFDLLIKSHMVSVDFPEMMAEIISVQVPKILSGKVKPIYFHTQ

[2] = tested on: Rattus norvegicus; experiment: Inhibition of testosterone induced ventral prostate growth in Sprague-Dawley rat at 0.1 mg/kg/day, po after 7 days; assay type: functional; settings: Prostate gland, 168 h
[3] = tested on: LNCaP; experiment: Growth inhibition of human LNCaP cells in presence of testosterone after 3 days; assay type: functional, cell-based
[4] = tested on: LNCaP; experiment: Growth inhibition of human LNCaP cells in presence of dihydrotestosterone after 3 days; assay type: functional, cell-based
[5] = tested on: LNCaP; experiment: Growth inhibition of human LNCaP cells after 3 days; assay type: functional, cell-based
[6] = species on record: Rattus norvegicus; experiment: Inhibition of steroid 5-alpha-reductase activity in Sprague-Dawley rat liver microsomes at 113 uM after 10 mins; settings: Microsome
[7] = tested on: Rattus norvegicus; experiment: Inhibition of testosterone induced ventral prostate growth in Sprague-Dawley rat at 0.001 mg/kg/day, po after 7 days; assay type: functional, Prostate gland; design: scale not given: the % may be the effect or the level left
[8] = Inhibition of steroid 5-alpha-reductase activity in Sprague-Dawley rat liver microsomes after 10 mins; design: species or system Microsome

SMILES | Activity [1] | inhibition in vivo at 0.1 mg/kg/day [2] | Activity [3] | Activity [4] | Activity [5] | inhibition [6] | Activity [7] | IC50 [8]
C/C(=C\CC[C@@H](C)[C@H]1CC[C@@]2(C)C3=CC[C@H]4C(C)(C)[C@@H](O)CC[C@]4(C)C3=CC[C@]12C)CO [GANODEROL B] | 50% | 49% | Dose-dependent effect | Dose-dependent effect | inactive | 37% | 31% | –
CC(C)(C)NC(=O)[C@H]1CC[C@H]2[C@@H]3CC[C@H]4NC(=O)C=C[C@]4(C)[C@H]3CC[C@]12C [FINASTERIDE] | – | – | – | – | – | – | – | 0.73 µM
